The test system of the assay is M. tuberculosis H37Rv growth inhibition with meropenem. Nature of the assay: dose response, H37Rv, with and without meropenem (AID 434987).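 Further: growth over 7 days at 37 °C before Alamar Blue read on day 9.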
[1] abbreviates: M. tuberculosis H37Rv growth inhibition, measured here: IC50 without meropenem.
Setting [2] is: M. tuberculosis H37Rv growth inhibition, measured here: IC90 without meropenem.
[3] abbreviates: measured here: IC90 with meropenem.

Each structure is given as a SMILES string. Activity calls are given as the source filed them. How the calls were made is not given here.

By IC50 is commonly meant the concentration at which inhibition is half-maximal. In general, IC90 refers to the concentration at which the effect reaches the 90% level.

Take `CCOc1ccc2nc(NC(=O)c3cnccn3)sc2c1`: the IC50 is 4.07 µM. This molecule also registered a half-maximal inhibitory concentration (IC50) under setting [1] of over 100 µM. This molecule also came in with a concentration for an effect of 90% (IC90) under setting [2] of over 100 µM. Moreover, under setting [3], the IC90 is over 100 µM.
For `Cc1[nH]c2c(C)cccc2c1CCNC(=O)c1ccc2c(c1[N+](=O)[O-])C(=O)c1ccccc1C2=O`, the IC50 is > 100 µM (inactive). The molecule also returned an IC50 under setting [1] of over 100 µM. The IC90 under setting [2] was over 100 µM. The IC90 under setting [3] is over 100 µM.
As to `CCn1nnnc1SCC(=O)c1ccc(C)cc1C`, the IC50 is > 100 µM (inactive). The half-maximal inhibitory concentration (IC50) under setting [1] is over 100 µM. Also, the IC90 under setting [2] was over 100 µM. This molecule yielded an IC90 under setting [3] of over 100 µM.
Take `N#Cc1c(NC(=O)CSc2nc(-c3ccco3)cc(C(F)(F)F)n2)sc2c1CCCC2`: the IC50 is > 100 µM (inactive). Under setting [1], this molecule registered an IC50 of over 100 µM. The molecule further showed a concentration for an effect of 90% (IC90) under setting [2] of over 100 µM. Also, the IC90 under setting [3] was over 100 µM.
`O=[N+]([O-])c1cc(C(F)(F)F)ccc1NCCc1c[nH]c2ccc(O)cc12`: the IC50 was 33.9 µM (inactive). This molecule displayed an IC50 under setting [1] of 52.8 µM. For the same molecule, under setting [2], the 90% effect concentration (IC90) was over 100 µM. The IC90 under setting [3] came to 72.9 µM.
The corresponding values for `O=C1/C(=C/c2ccncc2)CCc2ccccc21` are 16.8 µM (inactive), 24.3 µM, 36.4 µM and 29.1 µM.
The corresponding values for `c1ccc(-c2n[nH]c3c2CCC3)cc1` are 3.73 µM, 14.4 µM, 32.4 µM and 46.3 µM.
In the case of `Clc1ccc(Cn2cc(/C=N/n3cnnc3)c3ccccc32)cc1`, the IC50 was 46.9 µM (inactive). This molecule showed a concentration for half-maximal inhibition (IC50) under setting [1] of 49 µM. Besides, the IC90 under setting [2] was over 50 µM. In addition, under setting [3], the IC90 was over 100 µM.
On to `CN(c1ccc(OCC(=O)OCC(=O)c2c(N)n(C)c(=O)n(C)c2=O)cc1)S(=O)(=O)c1ccc2ccccc2c1`, for which the half-maximal inhibitory concentration (IC50) is 26.2 µM. Moreover, under setting [1], the IC50 is over 100 µM. This molecule gave a 90% effect concentration (IC90) under setting [2] of over 100 µM. Under setting [3], the IC90 is over 100 µM.
For the molecule `CN1C2CCC1CC(OC(=O)c1ccc([N+](=O)[O-])cc1)C2` (stereo not drawn), the IC50 was > 100 µM (inactive). The IC50 under setting [1] was over 100 µM. Under setting [2], this molecule gave a 90% effect concentration (IC90) of over 100 µM. Moreover, under setting [3], the IC90 was over 100 µM.
Regarding `Cc1ccc2occ(/C=C/C(=O)c3ccccc3O)c(=O)c2c1`, the IC50 was 50.2 µM (inactive). Besides, the IC50 under setting [1] was over 100 µM. Under setting [2], this molecule came in with an IC90 of over 100 µM. Also, the IC90 under setting [3] is over 100 µM.
For `CCn1cc(C(=O)O)c(=O)c2cc(F)c(N3CCN(C(=S)NC(=O)c4ccccc4C)CC3)cc21`, the IC50 was 10.9 µM (inactive). For the same molecule, the half-maximal inhibitory concentration (IC50) under setting [1] came out at 19.5 µM. Under setting [2], this molecule yielded a 90% effect concentration (IC90) of 28.3 µM. Moreover, the concentration for an effect of 90% (IC90) under setting [3] came to 16 µM.
Consider `CCOC(=O)c1sc(NC(=O)Cn2nnc3sc4c(c3c2=O)CCC(C(C)(C)C)C4)nc1C` (stereo not drawn), for which the IC50 was 93.7 µM (inactive). Under setting [1], this molecule came in with an IC50 of over 100 µM. The molecule further yielded an IC90 under setting [2] of over 100 µM. Also, under setting [3], the IC90 is over 100 µM.
As for `Cc1ccc(C)c(NC(=O)c2cc(-c3cccnc3)nc3ccccc23)c1`, the IC50 is > 100 µM (inactive). The molecule also displayed a concentration for half-maximal inhibition (IC50) under setting [1] of over 100 µM. In addition, the IC90 under setting [2] was over 100 µM. Further, the IC90 under setting [3] is over 100 µM.
Turning to `COc1nc(-c2ccccc2)ccc1-c1noc(-c2cccnc2)n1`, the IC50 is > 100 µM (inactive). Under setting [1], this molecule showed a half-maximal inhibitory concentration (IC50) of over 100 µM. Also, under setting [2], the 90% effect concentration (IC90) is over 100 µM. Also, the IC90 under setting [3] is over 100 µM.
For the molecule `Cc1nn(-c2ccccc2)cc1/C=N/NC(N)=S`, the IC50 is 3.7 µM. Besides, the IC50 under setting [1] is over 100 µM. The IC90 under setting [2] was over 100 µM. The concentration for an effect of 90% (IC90) under setting [3] is over 100 µM.
In the case of `O=C(OCC(=O)N1CCc2ccccc21)c1ccc(Cl)nc1`, the IC50 was 22.8 µM (inactive). Under setting [1], this molecule showed an IC50 of 44 µM. Under setting [2], the IC90 was over 100 µM. Also, the IC90 under setting [3] is over 100 µM.
As for `COc1ccc(OC)c(-c2cc(C(=O)Nc3c(C)nn(Cc4ccccc4C)c3C)no2)c1`, the IC50 was > 100 µM (inactive). Further, the 50% inhibitory concentration (IC50) under setting [1] was over 100 µM. This molecule also came in with an IC90 under setting [2] of over 100 µM. The molecule further yielded a 90% effect concentration (IC90) under setting [3] of over 100 µM.
`O=C(CN1C(=O)c2cccc([N+](=O)[O-])c2C1=O)N1CCN(c2ccc(F)cc2)CC1`: the IC50 was 58.6 µM (inactive). The half-inhibitory concentration (IC50) under setting [1] was 91.4 µM. This molecule displayed a 90% effect concentration (IC90) under setting [2] of over 100 µM. The 90% effect concentration (IC90) under setting [3] was found to be 74.5 µM.
As to `COc1ccc2c(c1)c(C(C)=O)c(C)n2-c1ccccc1`, the IC50 was 0.336 µM. The 50% inhibitory concentration (IC50) under setting [1] was over 100 µM. This molecule also came in with an IC90 under setting [2] of over 100 µM. Under setting [3], this molecule had a concentration for an effect of 90% (IC90) of 6.92 µM.
As for `NC(=O)CN1C(=O)C(O)(CC(=O)/C=C\C=C\c2ccccc2)c2ccccc21` (stereo not drawn), the IC50 was > 100 µM (inactive). The same molecule yielded an IC50 under setting [1] of over 100 µM. This molecule also yielded a concentration for an effect of 90% (IC90) under setting [2] of over 100 µM. Further, the IC90 under setting [3] is over 100 µM.
Turning to `NNC(=S)NC1CC2CC1C1C=CCC21` (stereo not drawn), the IC50 is 12.4 µM (inactive). This molecule also had an IC50 under setting [1] of 21.1 µM. In addition, the IC90 under setting [2] turned out to be 23.9 µM. Under setting [3], the 90% effect concentration (IC90) amounted to 13.5 µM.
The corresponding values for `C/C(=N/NC(=O)c1ccc(Cl)s1)c1ccc(NC(=O)COc2ccc(Cl)cc2)cc1` are > 100 µM (inactive), over 100 µM, over 100 µM and over 100 µM.
On the same counts, the results for `CCOc1cccc(=O)c2c(C)n(Cc3ccccc3)c(C)c12` are > 100 µM (inactive), over 100 µM, over 100 µM and over 100 µM.
The corresponding values for `COc1cc2nc(N3CCN(C(=O)OCc4ccccc4)[C@H](C(=O)NC(C)(C)C)C3)nc(N)c2cc1OC` are 64.5 µM (inactive), 65 µM, 92.7 µM and 84 µM.
For the molecule `CCOC(=O)COc1ccc2nsnc2c1`, the IC50 was 23.5 µM (inactive). The molecule also returned an IC50 under setting [1] of 27 µM. This molecule also returned a 90% effect concentration (IC90) under setting [2] of over 100 µM. The molecule also had a 90% effect concentration (IC90) under setting [3] of 26 µM.
The corresponding values for `COc1ccc2[nH]c3c(c2c1)CCN=C3C` are > 100 µM (inactive), over 100 µM, over 100 µM and over 100 µM.
The corresponding values for `COc1ccc(-c2nc(-c3cccc(C)c3)no2)cc1OC` are > 100 µM (inactive), over 100 µM, over 100 µM and over 100 µM.
`Nc1c(Cl)cc(-c2csc(N3CCCC3c3nc4cc(Cl)c(N5CCCCC5)cc4n3CCCO)n2)cc1Cl` (stereo not drawn): the IC50 was 97.3 µM (inactive). Besides, under setting [1], the concentration for half-maximal inhibition (IC50) is over 100 µM. Moreover, the concentration for an effect of 90% (IC90) under setting [2] is over 100 µM. This molecule had a concentration for an effect of 90% (IC90) under setting [3] of over 100 µM.
With `COc1cccc(-c2ccc(-c3noc(-c4ccccc4F)n3)c(OC)n2)c1`, the 50% inhibitory concentration (IC50) is 9.65 µM. The molecule also came in with a concentration for half-maximal inhibition (IC50) under setting [1] of over 100 µM. The molecule further displayed a concentration for an effect of 90% (IC90) under setting [2] of over 100 µM. The 90% effect concentration (IC90) under setting [3] is over 12.5 µM.
On to `O=C(COn1nnc2ccc(Cl)cc21)NC12CC3CC(CC(C3)C1)C2`, for which the IC50 is > 100 µM (inactive). Further, the half-inhibitory concentration (IC50) under setting [1] is over 100 µM. The molecule also registered a 90% effect concentration (IC90) under setting [2] of over 100 µM. The 90% effect concentration (IC90) under setting [3] is over 100 µM.
In the case of `CCCC(C(=O)N1CCOCC1)N1C(=O)C2C3C=CC(C3)C2C1=O` (stereo not drawn), the IC50 is > 100 µM (inactive). The IC50 under setting [1] is over 100 µM. This molecule returned an IC90 under setting [2] of over 100 µM. Under setting [3], this molecule showed an IC90 of over 100 µM.

(Values after PubChem BioAssay AID434987 (Southern Research Specialized Biocontainment Screening …, 2010).)
